From ChEMBL document CHEMBL3826918, “Recent developments of C-4 substituted coumarin derivatives as anticancer agents” (Eur J Med Chem, 2016) come the findings set out here.

The subject of one data set is MRC5. In words: Cytotoxicity against human MRC5 cells assessed as reduction in cell viability measured after 48 hrs by MTT assay. Format: functional, cell-based. The settings on record: MRC5, 48 h. In general terms: Tetrazolium dyes change colour on reduction, which living cells bring about.
The next data set deals with A-375. Description: Cytotoxicity against human A375 cells assessed as reduction in cell viability measured after 48 hrs by MTT assay. Format: functional, cell-based. The settings on record: A-375, 48 h.
Data set [1] is described as follows: Inhibition of TNF-alpha induced NF-kappaB transcriptional activity in HEK293 cells expressing NF-kappaB-Luc measured after 48 hrs by luciferase assay. Format: cell-based. The settings on record: Homo sapiens, HEK293, 48 h.
Data set [2] has as its target T1, Steryl-sulfatase (Homo sapiens, UniProt P08842).
T1 sequence (P08842 whole entry): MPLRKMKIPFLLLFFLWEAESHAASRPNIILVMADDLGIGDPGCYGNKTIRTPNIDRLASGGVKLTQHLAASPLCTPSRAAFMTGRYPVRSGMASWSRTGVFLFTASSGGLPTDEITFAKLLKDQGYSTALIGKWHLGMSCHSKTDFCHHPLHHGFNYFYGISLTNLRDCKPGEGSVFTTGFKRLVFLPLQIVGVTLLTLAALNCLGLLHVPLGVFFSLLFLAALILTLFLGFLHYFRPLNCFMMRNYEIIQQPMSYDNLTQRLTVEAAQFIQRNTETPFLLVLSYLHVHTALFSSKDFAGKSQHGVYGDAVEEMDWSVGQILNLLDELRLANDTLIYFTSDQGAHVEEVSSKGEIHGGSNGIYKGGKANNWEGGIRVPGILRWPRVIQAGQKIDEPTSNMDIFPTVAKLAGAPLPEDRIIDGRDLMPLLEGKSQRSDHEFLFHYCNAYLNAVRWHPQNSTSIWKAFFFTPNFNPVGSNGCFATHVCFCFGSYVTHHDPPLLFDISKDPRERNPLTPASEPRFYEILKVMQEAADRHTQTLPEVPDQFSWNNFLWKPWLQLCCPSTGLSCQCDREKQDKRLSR
In words: Inhibition of sulphatase in human MCF7 cells assessed as inhibition of E1-STS activity. Format: cell-based.

The nature of data set [3]: Octanol-water partition coefficient, log P of the compound. Type of data set: physicochemical.
Data set [4] relates to MDA-MB-231. Description: Cytotoxicity against human MDA-MB-231 cells assessed as reduction in cell viability by MTT assay. Type of data set: functional, cell-based.
Data set [5] can be described thus: Cytotoxicity against human hTERT-HME1 cells assessed as reduction in cell viability by MTT assay. Type of data set: functional, cell-based.
In data set [6] the test system is MCF7. Description: Cytotoxicity against human MCF7 cells assessed as reduction in cell viability by MTT assay. Format: functional, cell-based.
Data set [7] addresses T2, Aromatase (Homo sapiens, UniProt P11511).
T2 sequence (P11511 whole entry): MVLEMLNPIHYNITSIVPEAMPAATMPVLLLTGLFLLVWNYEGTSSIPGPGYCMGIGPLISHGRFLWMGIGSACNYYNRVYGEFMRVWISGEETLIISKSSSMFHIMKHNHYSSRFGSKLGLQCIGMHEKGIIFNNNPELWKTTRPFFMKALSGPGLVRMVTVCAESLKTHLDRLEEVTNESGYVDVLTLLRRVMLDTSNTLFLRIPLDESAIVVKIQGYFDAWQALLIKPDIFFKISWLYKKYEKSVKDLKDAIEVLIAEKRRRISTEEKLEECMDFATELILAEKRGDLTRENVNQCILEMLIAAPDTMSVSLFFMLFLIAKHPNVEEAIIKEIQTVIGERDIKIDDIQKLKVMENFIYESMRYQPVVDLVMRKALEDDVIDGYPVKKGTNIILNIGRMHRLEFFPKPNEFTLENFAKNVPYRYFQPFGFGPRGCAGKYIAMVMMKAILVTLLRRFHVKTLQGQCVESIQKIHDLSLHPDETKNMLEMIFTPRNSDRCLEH
Type of data set: cell-based, MCF7.
Description: Inhibition of aromatase in human MCF7 cells using [1beta-3H]androstenedione as substrate measured after 1 hr by liquid scintillation counting method

Data set [8] has as its target T1, Steryl-sulfatase. Description: Inhibition of placental sulphatase (unknown origin).
In data set [9] the target is T2, Aromatase.
Description: Inhibition of aromatase (unknown origin) preincubated for 10 mins in presence of NADPH generating system followed by addition of dibenzylfluorescein as substrate measured after 30 mins by fluorescence quenching assay
For the next data set, the system named is A549. In words: Antiproliferative activity against human A549 cells over-expressing CK2 assessed as growth inhibition. Type of data set: functional, cell-based.
The next data set concerns the target Casein kinase II (Homo sapiens, UniProt P19784+P67870+P68400). In words: Inhibition of recombinant human N-terminal 6His-tagged CK2 expressed in baculovirus infected Sf21 cells in presence of ATP by radiometric assay.
Data set [10] can be described thus: Antiproliferative activity against human PC3 cells. Format: functional, cell-based. The settings on record: PC-3.
In data set [11] the test system is MCF7. In words: cells. The settings on record: Homo sapiens.
Description: Antiproliferative activity against human MCF7 cells
Data set [12] concerns MDA-MB-231. Description: cells. The settings on record: Homo sapiens.
Description: Antiproliferative activity against human MDA-MB-231 cells

Structures are written as SMILES.

Sequence of Casein kinase II (P67870 whole entry): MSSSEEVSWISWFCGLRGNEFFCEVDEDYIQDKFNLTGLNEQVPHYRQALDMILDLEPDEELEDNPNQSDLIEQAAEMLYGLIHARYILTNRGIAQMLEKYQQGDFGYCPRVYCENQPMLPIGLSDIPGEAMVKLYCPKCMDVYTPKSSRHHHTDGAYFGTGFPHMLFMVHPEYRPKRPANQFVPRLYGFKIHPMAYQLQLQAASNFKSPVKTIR
Sequence of Casein kinase II (P68400 whole entry): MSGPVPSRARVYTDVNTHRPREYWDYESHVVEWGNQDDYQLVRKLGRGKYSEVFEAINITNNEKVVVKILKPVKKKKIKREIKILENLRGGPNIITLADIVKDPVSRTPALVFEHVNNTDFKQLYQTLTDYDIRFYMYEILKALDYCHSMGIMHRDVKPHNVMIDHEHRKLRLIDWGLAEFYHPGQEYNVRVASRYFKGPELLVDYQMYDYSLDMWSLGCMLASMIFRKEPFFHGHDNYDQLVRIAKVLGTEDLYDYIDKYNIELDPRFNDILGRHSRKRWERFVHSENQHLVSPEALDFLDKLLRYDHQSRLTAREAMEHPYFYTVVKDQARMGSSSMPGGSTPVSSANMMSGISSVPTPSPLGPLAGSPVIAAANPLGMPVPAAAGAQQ
Sequence of Casein kinase II (P19784 whole entry): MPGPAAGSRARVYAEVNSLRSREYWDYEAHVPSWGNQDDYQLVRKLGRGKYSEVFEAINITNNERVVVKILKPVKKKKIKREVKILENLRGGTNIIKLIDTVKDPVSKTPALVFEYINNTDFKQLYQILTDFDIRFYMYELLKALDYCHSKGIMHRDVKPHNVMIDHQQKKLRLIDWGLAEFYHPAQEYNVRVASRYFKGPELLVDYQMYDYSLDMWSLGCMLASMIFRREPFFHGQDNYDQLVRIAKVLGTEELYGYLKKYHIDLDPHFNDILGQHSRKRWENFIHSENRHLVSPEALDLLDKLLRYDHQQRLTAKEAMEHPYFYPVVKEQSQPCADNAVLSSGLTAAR

As usually defined, the IC50 is the concentration that gives 50% inhibition. Consider `O=c1cc(-c2ccccc2)c2ccc(O)c(O)c2o1`, for which the IC50 with MRC5 was 47 µM; in the data set on A-375, 39 µM.
As for `COc1cc(C2CC(=O)Oc3cc4c(cc32)OCO4)cc(OC)c1OC` (centres undefined), the IC50 in [1] worked out at 0.11 µM.
For `Cc1cc(=O)oc2ccc(OS(N)(=O)=O)cc12`, the IC50 on Steryl-sulfatase [2] is 0.38 µM.
As a reminder, the logP is the decadic logarithm of the partition coefficient of the neutral form, usually between octanol and water. Low readings indicate lower lipophilicity, high ones higher lipophilicity. Regarding `COc1cc(C2CC(=O)Oc3cc4c(cc32)OCO4)cc(OC)c1O` (centres undefined), the logP in data set [3] was found to be 2.17.
For `COc1ccc2c(CSC3=CC(=O)c4ccccc4C3=O)cc(=O)oc2c1`, the concentration for half-maximal inhibition (IC50) in the data set on MDA-MB-231 [4] was 9.5 µM; in data set [5] it was 18.1 µM; in the data set on MCF7 [6], 11.2 µM.
As for `COc1ccc2c(Cc3ccccc3)c(-c3ccc(Cl)cc3)c(=O)oc2c1`, the IC50 against Aromatase [7] was 0.08 µM.
On Steryl-sulfatase [8], `NS(=O)(=O)Oc1ccc2c(c1)OC(=O)C1CCCCCCCCCCC21` (centres undefined) registered an IC50 of 0.001 µM.
Consider `COc1cc(C2CC(=O)Oc3cc4c(cc32)OCO4)cc(OC)c1OC(C)=O` (centres undefined), for which, on Aromatase [9], the IC50 amounted to 12.1 µM. This compound showed a logP in data set [3] of 2.17.
As for `O=C1C=C(SCc2cc(=O)oc3cc(O)ccc23)C(=O)c2ccccc21`, the IC50 in the data set with MDA-MB-231 [4] was 9.5 µM; in [5] it was 18.1 µM; with MCF7 [6], 11.2 µM.
Consider `O=c1cc(C(F)(F)F)c2ccc(O)c(Cl)c2o1`, for which the IC50 was 20.2 µM in the data set on A549 and 0.4 µM at Casein kinase II.
`COc1cc(C2CC(=O)Oc3cc4c(c(OC)c32)OCO4)cc(OC)c1OC` (centres undefined) returned an IC50 in [1] of 0.11 µM.
For the compound `O=C(c1ccc(OCCN2CCCCC2)cc1)c1c(-c2ccc(O)cc2)sc2cc(O)ccc12` [RALOXIFENE], the IC50 in data set [10] is more than 40 µM; in the data set with MCF7 [11] it was 15.4 µM; with MDA-MB-231 [12], 18.5 µM.
In the same order, the values of `CC/C(=C(\c1ccccc1)c1ccc(OCCN(C)C)cc1)c1ccccc1` [TAMOXIFEN] are more than 40 µM, 13.7 µM and 17.9 µM.
